≈ marks a conversion by molar mass, not a printed value. Where “and” joins values, the source holds several entries; their conditions need not be identical. Equal values may be shown once.
Assays:
[1] = Oral toxicity (LD50) in mice; conditions: mouse, in vivo
[2] = test system: Bacillus megaterium ATCC 8011; experiment: Antimicrobial activity, agar well diffusion assay; assay type: cell-based; conditions: Priestia megaterium, ATCC8011, lowest twofold dilution giving a zone of inhibition, read-out: Minimum inhibitory concentration
Sarcina lutea ATCC 9341 = experiment: Antimicrobial activity, agar well diffusion assay; assay type: cell-based; conditions: Micrococcus luteus, ATCC9341, lowest twofold dilution giving a zone of inhibition, read-out: Minimum inhibitory concentration
[3] = test system: Bacillus species E ATCC 27859; experiment: Antimicrobial activity, agar well diffusion assay; assay type: cell-based; conditions: ATCC27859, lowest twofold dilution giving a zone of inhibition, read-out: Minimum inhibitory concentration
[4] = test system: Bacillus subtilis NRRL 558; experiment: Antimicrobial activity, agar well diffusion assay; assay type: cell-based; conditions: NRRL558, lowest twofold dilution giving a zone of inhibition, read-out: Minimum inhibitory concentration
[5] = test system: Staphylococcus aureus ATCC 6538P; experiment: Antimicrobial activity, agar well diffusion assay; assay type: cell-based; conditions: ATCC6538P, lowest twofold dilution giving a zone of inhibition, read-out: Minimum inhibitory concentration
[6] = test system: Bacillus species TA ATCC 27860; experiment: Antimicrobial activity, agar well diffusion assay; assay type: cell-based; conditions: ATCC27860, lowest twofold dilution giving a zone of inhibition, read-out: Minimum inhibitory concentration
[7] = test system: Mycobacterium phlei ATCC 355; experiment: Antimicrobial activity, agar well diffusion assay; assay type: cell-based; conditions: Mycolicibacterium phlei, ATCC355, lowest twofold dilution giving a zone of inhibition, read-out: Minimum inhibitory concentration
[8] = test system: Streptomyces cellulosae ATCC 3313; experiment: Antimicrobial activity, agar well diffusion assay; assay type: cell-based; conditions: ATCC3313, lowest twofold dilution giving a zone of inhibition, read-out: Minimum inhibitory concentration
[9] = test system: Paecilomyces varioti ATCC 26820; experiment: Antimicrobial activity, agar well diffusion assay; assay type: cell-based; conditions: ATCC26820, lowest twofold dilution giving a zone of inhibition, read-out: Minimum inhibitory concentration
gram-positive bacteria = experiment: Growth of gram-positive bacteria (summary in words); assay type: cell-based
[10] = test system: volatile fatty acids produced in the rumen; experiment: In vitro rumen fermentation, ratio of volatile fatty acids (GLC); parameters: species or system steer; conditions: 4 hrs.; for μmoles C3 /μmoles C2 + μmoles nC4, means / μmoles C3 /μmoles C2 + μmoles nC4, replicate fermentations: 38° C.
Procedure: Rumen fluid is obtained from a steer with a fistulated rumen. The steer is maintained on the following ration:
The rumen fluid is immediately strained through a #30 mesh sieve. For each fermentation, 75 ml of the resulting fluid is added to a 250 ml flask containing the following:
1 g of 80%:20% finely ground grain: hay ration;
1 ml of an 18% aqueous glucose solution (1 millimole per flask);
1.5 ml of a 3.1% aqueous urea solution (0.76 millimole per flask);
60 micromoles of each of the 10 essential amino acids (arginine, histidine, leucine, methionine, threonine, valine, lysine, isoleucine, phenylalanine,tryptophan);
Carbon dioxide is continuously passed through the hood. […] Three ml of the supernate is added to 1 ml of a 25% metaphosphoric acid solution containing 23 micromoles 2-methyl valeric acid as an internal standard. The resulting fluid is permitted to sit at room temperature for 30 minutes. The fluid is filtered through a […] Millipore filter and refrigerated until gas-liquid chromatographic analyses for volatile fatty acids.

ruminant animals = experiment: Efficiency of feed utilization on oral administration; assay type: in vivo; conditions: administered orally
[11] = test system: DOCA-Na Sprague Dawley (Charles River) male rats; experiment: Antihypertensive activity in DOCA-Na hypertensive rats, systolic blood pressure; assay type: in vivo, rat; conditions: 10 MG/KG × 3 days PO; for SYSTOLIC BLOOD PRESSURE, PCT CHANGE: change from pre drug controls
Procedure: (§1) Antihypertensive activity is tested for in the DOCA-Na Sprague Dawley (Charles River) male rats weighing 170-210 grams. DOCA-Na hypertension is produced by unilateral nephrectomy followed by subcutaneous implantation of a 25 mg. desoxycortico sterone (DOCA) pellet. Animals are placed in individual cages receiving 0.9% sodium chloride solution and rat chow diet ad libitum. Two weeks are allowed to elapse from the time of surgery for development of hypertension, i.e., systolic blood pressure of at least 150 mm. Hg.
(§2) Systolic blood pressure and heart rate are measured indirectly from the tail of unanesthetized rats, using a pneumatic pulse transducer. Control readings are taken prior to drug and at 1, 3, 6 and 24 hours post drug.
(§3) The results are expressed as absolute values and percent changes from controls.

[12] = test system: DOCA-Na Sprague Dawley (Charles River) male rats; experiment: Cardiac rate in DOCA-Na hypertensive rats; assay type: in vivo, rat; conditions: 10 MG/KG × 3 days PO; for CARDIAC RATE, PCT CHANGE: change from pre drug controls; for CARDIAC RATE, individual rats: rats 1-6
Procedure: as §1, §2, §3

[13] = test system: Bacillus sp. TA ATCC 27860; experiment: Antimicrobial activity of co-metabolite (M.I.C.); assay type: cell-based; conditions: ATCC27860
Source text: (§4) *Minimum inhibitory concentration per ml. in mcg.

[14] = test system: Escherichia coli ATCC 27856; experiment: Antimicrobial activity of co-metabolite (M.I.C.); assay type: cell-based; conditions: ATCC27856
Source text: as §4

[15] = test system: Klebsiella pneumoniae ATCC 27858; experiment: Antimicrobial activity of co-metabolite (M.I.C.); assay type: cell-based; conditions: ATCC27858
Source text: as §4

[16] = test system: Paecilomyces varioti ATCC 26820; experiment: Antimicrobial activity of co-metabolite (M.I.C.); assay type: cell-based; conditions: ATCC26820
Source text: as §4

[17] = test system: Pseudomonas aeruginosa ATCC 8709; experiment: Antimicrobial activity of co-metabolite (M.I.C.); assay type: cell-based; conditions: ATCC8709
Source text: as §4

[18] = test system: Staphylococcus aureus ATCC 6538P; experiment: Antimicrobial activity of co-metabolite (M.I.C.); assay type: cell-based; conditions: ATCC6538P
Source text: as §4

CCC(=CC=CC1C=CC2C(CC)CCC2C1C(=O)c1ccc[nH]1)C1OC(C(C)C(=O)O)CCC1C [Antibiotic X-14547, α-(R), 5 (S)-dimethyl-6(R)-{1-ethyl-4-[4-(R)-(2-pyrrolyl-carbonyl)-1(S)-ethyl-3a(R),4,5(R),7a(R)-tetrahydroindan-5-yl]-1(E), 3(E)-butadienyl}tetrahydropyran-2-acetic acid]
LD50 at 24 h [1]: 129 mg/kg
MIC [2]: 0.1 mg/L (≈ 0.203 µM)
MIC (Sarcina lutea ATCC 9341): 0.1 mg/L (≈ 0.203 µM)
MIC [3]: 0.2 mg/L (≈ 0.405 µM)
MIC [4]: 0.1 mg/L (≈ 0.203 µM)
MIC [5]: 0.2 mg/L (≈ 0.405 µM)
MIC [6]: 0.2 mg/L (≈ 0.405 µM)
MIC [7]: 3.1 mg/L (≈ 6.28 µM)
MIC [8]: 0.8 mg/L (≈ 1.62 µM)
MIC [9]: 6.3 mg/L (≈ 12.8 µM)
effect on growth of gram-positive bacteria (gram-positive bacteria): adversely affecting the growth of certain gram-positive bacteria
ratio of propionate (C3) to acetates and n-butyrates ([10]; 10 and 25 ppm, versus controls): significantly improved
μmoles C3 /μmoles C2 + μmoles nC4, means ([10]; 10 ppm): 0.491
μmoles C3 /μmoles C2 + μmoles nC4, replicate fermentations ([10]; 10 ppm): 0.493 and 0.489
μmoles C3 /μmoles C2 + μmoles nC4, means ([10]; 25 ppm): 0.521
μmoles C3 /μmoles C2 + μmoles nC4, replicate fermentations ([10]; 25 ppm): 0.531 and 0.510
efficiency of feed utilization (ruminant animals): increases the efficiency of feed utilization in ruminant animals
SYSTOLIC BLOOD PRESSURE, MEAN ([11]; day 1): 188.3 mmHg
SYSTOLIC BLOOD PRESSURE, PCT CHANGE ([11]; day 1): -9.0 PCT
SYSTOLIC BLOOD PRESSURE, individual rats ([11]; day 1, rats 1-6): 216 mmHg and 178 mmHg and 184 mmHg and 198 mmHg and 151 mmHg and 203 mmHg
SYSTOLIC BLOOD PRESSURE, MEAN ([11]; day 2, first line): 185.7 mmHg
SYSTOLIC BLOOD PRESSURE, PCT CHANGE ([11]; day 2, first line): -10.3 PCT
SYSTOLIC BLOOD PRESSURE, individual rats ([11]; day 2, first line, rats): 211 mmHg and 201 mmHg and 176 mmHg and 168 mmHg and 190 mmHg
SYSTOLIC BLOOD PRESSURE, MEAN ([11]; day 2, second line): 171.3 mmHg
SYSTOLIC BLOOD PRESSURE, PCT CHANGE ([11]; day 2, second line): -17.1 PCT
SYSTOLIC BLOOD PRESSURE, individual rats ([11]; day 2, second line, rats 1-6): 184 mmHg and 174 mmHg and 161 mmHg and 165 mmHg and 179 mmHg
SYSTOLIC BLOOD PRESSURE, MEAN ([11]; day 3, first line): 205.0 mmHg
SYSTOLIC BLOOD PRESSURE, PCT CHANGE ([11]; day 3, first line): -0.7 PCT
SYSTOLIC BLOOD PRESSURE, individual rats ([11]; day 3, first line, rats 1-6): 214 mmHg and 195 mmHg and 193 mmHg and 219 mmHg and 198 mmHg and 211 mmHg
SYSTOLIC BLOOD PRESSURE, MEAN ([11]; day 3, second line): 196.0 mmHg
SYSTOLIC BLOOD PRESSURE, PCT CHANGE ([11]; day 3, second line): -5.2 PCT
SYSTOLIC BLOOD PRESSURE, individual rats ([11]; day 3, second line, rats 1-6): 210 mmHg and 177 mmHg and 173 mmHg and 206 mmHg and 190 mmHg and 220 mmHg
SYSTOLIC BLOOD PRESSURE, MEAN ([11]; day 4): 202.8 mmHg
SYSTOLIC BLOOD PRESSURE, PCT CHANGE ([11]; day 4): -1.7 PCT
SYSTOLIC BLOOD PRESSURE, individual rats ([11]; day 4, rats 1-6): 197 mmHg and 172 mmHg and 229 mmHg and 212 mmHg and 179 mmHg and 228 mmHg
CARDIAC RATE, MEAN ([12]; day 1): 420.0 BEATS/MIN
CARDIAC RATE, PCT CHANGE ([12]; day 1): 2.0 PCT
CARDIAC RATE, individual rats ([12]; day 1): 480 BEATS/MIN and 360 BEATS/MIN and 450 BEATS/MIN and 440 BEATS/MIN and 390 BEATS/MIN and 400 BEATS/MIN
CARDIAC RATE, MEAN ([12]; day 2, first line): 400.0 BEATS/MIN
CARDIAC RATE, PCT CHANGE ([12]; day 2, first line): -2.6 PCT
CARDIAC RATE, individual rats ([12]; day 2, first line): 430 BEATS/MIN and 320 BEATS/MIN and 360 BEATS/MIN and 490 BEATS/MIN and 370 BEATS/MIN
CARDIAC RATE, MEAN ([12]; day 2, second line): 378.3 BEATS/MIN
CARDIAC RATE, PCT CHANGE ([12]; day 2, second line): -8.1 PCT
CARDIAC RATE, individual rats ([12]; day 2, second line): 420 BEATS/MIN and 310 BEATS/MIN and 400 BEATS/MIN and 380 BEATS/MIN and 450 BEATS/MIN
CARDIAC RATE, MEAN ([12]; day 3, first line): 363.3 BEATS/MIN
CARDIAC RATE, PCT CHANGE ([12]; day 3, first line): -11.3 PCT
CARDIAC RATE, individual rats ([12]; day 3, first line): 380 BEATS/MIN and 360 BEATS/MIN and 370 BEATS/MIN and 350 BEATS/MIN
CARDIAC RATE, MEAN ([12]; day 3, second line): 365.0 BEATS/MIN
CARDIAC RATE, PCT CHANGE ([12]; day 3, second line): -10.8 PCT
CARDIAC RATE, individual rats ([12]; day 3, second line): 370 BEATS/MIN and 360 BEATS/MIN and 350 BEATS/MIN and 380 BEATS/MIN
CARDIAC RATE, MEAN ([12]; day 4): 356.7 BEATS/MIN
CARDIAC RATE, PCT CHANGE ([12]; day 4): -13.1 PCT
CARDIAC RATE, individual rats ([12]; day 4): 370 BEATS/MIN and 320 BEATS/MIN and 360 BEATS/MIN and 350 BEATS/MIN and 340 BEATS/MIN and 400 BEATS/MIN

CCC1(OC)C(=O)Nc2ccccc21 (stereo not drawn) [3-ethyl-1,3-dihydro-3-methoxy-2H-indole-2-one]
MIC [13]: 2.5 mg/L
MIC [14]: 5 mg/L
MIC [15]: 5 mg/L
MIC [16]: 2.5 mg/L
MIC [17]: 5 mg/L
MIC [18]: 5 mg/L
effect on growth of gram-positive bacteria (gram-positive bacteria): adversely affecting the growth of certain gram-positive bacteria
